Assay [1] deals with Intestinal-type alkaline phosphatase (Homo sapiens, UniProt P09923). Briefly: human IAP activators, dose response, biochemical, luminescent, uHTS hits, set 2 (AID 488817).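 Also: potency of activators that raise enzyme activity.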 The assay is classed as functional.
Assay [2] can be described thus: cytotoxicity in MIN6 insulinoma cells, dose response, cytotoxicity control, cell-based, mouse insulinoma (AID 2122).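 Also: confirmatory high-throughput counterscreen run to flag cytotoxic compounds; mouse MIN-6 beta cells carrying an insulin promoter eGFP reporter.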 The class given is functional.
Assay [3] has as its target T1, Sentrin-specific protease 8 (Homo sapiens, UniProt Q96LD8).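 Also: kinetic enzyme assay of SENP8 cleaving a Nedd8 protein substrate, dose-response confirmation of screening hits.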
T1 sequence (Q96LD8 whole entry): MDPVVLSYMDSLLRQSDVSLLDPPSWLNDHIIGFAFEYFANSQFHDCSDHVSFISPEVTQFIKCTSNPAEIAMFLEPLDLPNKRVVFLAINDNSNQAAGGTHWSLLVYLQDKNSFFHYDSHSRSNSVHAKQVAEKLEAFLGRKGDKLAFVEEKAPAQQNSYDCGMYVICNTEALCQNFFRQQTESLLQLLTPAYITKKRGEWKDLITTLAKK
The assay is classed as functional.

A short description of assay [4]: THP-1 cell cytotoxicity, dose response, cytotoxicity control for non-replicating M. tuberculosis project (AID 489025). The assay is classed as functional.
Assay [5] in a line: inhibitors of clade B AD8 Env fusion, dose response, cell-based, cherry-pick (AID 652062).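 Also: luciferase signal from cell-cell fusion driven by HIV-1 clade B AD8 Env; potency is for inhibitors of fusion seen as a drop in luminescence.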 The assay is classed as functional.
Assay [6] can be described thus: cells. The class given is functional.
For assay [7], the system named is Jurkat. The experiment in a line: SAR Analysis of small molecule inhibitors of T-cell specific antigen receptor-induced NF-kB activation in a Jurkat cell line using a luminescence assay - Set 2. [Related pubchem assays (depositor defined):AID435003, AID435012, AID465]. The following applies: Homo sapiens. The assay is classed as functional, cell-based.
Assay [8] can be described thus: HepG2 cell cytotoxicity, dose response, cytotoxicity control for Shn3 inhibitor project, CellTiter-Glo, cherry-picked (AID 624134). The class given is functional, cell-based. For orientation: Cellular ATP, detected with luciferase, serves as a proxy for viable cell number.
A short description of assay [9]: non-specific cell cytotoxicity, dose response, cytotoxicity control for PAX8 inhibitor project, plate reader, dry powder samples (AID 743021). The class given is functional, cell-based.
Assay [10] deals with T2, Serine/threonine-protein phosphatase (Candida dubliniensis (strain CD36 / CBS 7987 / NCPF 3949 / NRRLY-17841) (Yeast), UniProt B9W6M3).
T2 sequence (B9W6M3 whole entry): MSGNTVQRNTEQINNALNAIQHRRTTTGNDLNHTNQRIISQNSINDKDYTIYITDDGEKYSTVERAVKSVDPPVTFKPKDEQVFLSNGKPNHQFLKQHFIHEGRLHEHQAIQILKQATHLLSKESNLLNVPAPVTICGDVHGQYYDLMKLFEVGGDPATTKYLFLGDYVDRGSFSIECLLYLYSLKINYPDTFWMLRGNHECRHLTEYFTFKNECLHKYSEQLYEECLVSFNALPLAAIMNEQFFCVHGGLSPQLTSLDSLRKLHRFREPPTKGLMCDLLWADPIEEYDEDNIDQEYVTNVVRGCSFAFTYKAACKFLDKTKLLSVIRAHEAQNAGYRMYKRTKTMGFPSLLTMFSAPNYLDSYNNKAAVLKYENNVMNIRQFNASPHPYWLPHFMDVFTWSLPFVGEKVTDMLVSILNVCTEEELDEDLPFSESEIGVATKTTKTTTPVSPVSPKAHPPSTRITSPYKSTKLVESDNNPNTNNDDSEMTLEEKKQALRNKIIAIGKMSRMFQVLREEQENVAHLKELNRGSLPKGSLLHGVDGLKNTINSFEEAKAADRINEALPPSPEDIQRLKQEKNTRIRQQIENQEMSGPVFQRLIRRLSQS
Briefly: calcineurin pathway inhibitors in yeast reporter, dose response, S. cerevisiae, CDRE-lacZ, luminescence, secondary (AID 2388).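 Also: yeast reporter cells carrying a calcineurin-responsive lacZ construct stimulated with calcium chloride; luminescent beta-galactosidase reporter signal in whole cells rather than isolated phosphatase activity; potency for inhibition where a drop in reporter signal means calcineurin blockade.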 The assay is classed as functional, cell-based.

For assay [11], the target named is ATP-dependent molecular chaperone HSP82 (Candida albicans (strain WO-1) (Yeast), UniProt C4YTQ8). Briefly: loss of DOC-induced GRE-beta-galactosidase reporter signal, dose response, Hsp90 inhibitor project, S. cerevisiae, luminescence (AID 2400).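 Also: beta-galactosidase luminescence from glucocorticoid response element reporter as proxy for Hsp90 function; inhibitor potency where signal loss means Hsp90 inhibition.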 The class given is functional, cell-based.
The nature of assay [12]: NIH:OVCAR-3 ovarian cancer cell cytotoxicity, dose response, PAX8 inhibitor project, plate reader, dry powder samples (AID 743044). The assay is classed as functional, cell-based.
Assay [13] deals with HEK293. Briefly: cytotoxicity in HEK293T NF-kB-Luc cells, SAR follow-up, cytotoxicity control for NF-kB activator project, cell-based, resazurin fluorescence (AID 493251). The class given is functional. The following applies: Homo sapiens. (In general: Alamar Blue is a resazurin reagent that responds to reducing activity.)
Assay [14] can be described thus: cytotoxicity in COV434 cells, dose response, cytotoxicity control for PAX8 inhibitor project, cell-based, plate reader, dry powder, SA7 (AID 743145). The class given is functional.
A short description of assay [15]: cytotoxicity in OV-90 ovarian cancer cells, dose response, PAX8 inhibitor project, cell-based, plate reader, dry powder, SA8 (AID 743149). The class given is functional.
Assay [16] is described as follows: cytotoxicity dependent on PAX8, dose response, cell-based, plate reader, dry powder (AID 743049). The assay is classed as functional.
Assay [17] can be described thus: IOSE-T80 ovarian epithelial cell cytotoxicity, dose response, cytotoxicity control for PAX8 inhibitor project, plate reader, dry powder samples (AID 743045). The assay is classed as functional, cell-based.
In assay [18] the test system is HEK293. Briefly: SAR Analysis of small molecule inhibitors of T-cell specific antigen receptor-induced NF-kB activation in a HEK-293T cell line using a luminescence assay - Set 2. [Related pubchem assays (depositor defined):AID435003, AID435012, AID489026]. The assay is classed as functional, cell-based. The following applies: Homo sapiens.

This note sets out measurements from ChEMBL document CHEMBL1201862, “PubChem BioAssay data set” (2004).

Activity calls are given as the source filed them.

Sequence of Intestinal-type alkaline phosphatase (P09923 whole entry): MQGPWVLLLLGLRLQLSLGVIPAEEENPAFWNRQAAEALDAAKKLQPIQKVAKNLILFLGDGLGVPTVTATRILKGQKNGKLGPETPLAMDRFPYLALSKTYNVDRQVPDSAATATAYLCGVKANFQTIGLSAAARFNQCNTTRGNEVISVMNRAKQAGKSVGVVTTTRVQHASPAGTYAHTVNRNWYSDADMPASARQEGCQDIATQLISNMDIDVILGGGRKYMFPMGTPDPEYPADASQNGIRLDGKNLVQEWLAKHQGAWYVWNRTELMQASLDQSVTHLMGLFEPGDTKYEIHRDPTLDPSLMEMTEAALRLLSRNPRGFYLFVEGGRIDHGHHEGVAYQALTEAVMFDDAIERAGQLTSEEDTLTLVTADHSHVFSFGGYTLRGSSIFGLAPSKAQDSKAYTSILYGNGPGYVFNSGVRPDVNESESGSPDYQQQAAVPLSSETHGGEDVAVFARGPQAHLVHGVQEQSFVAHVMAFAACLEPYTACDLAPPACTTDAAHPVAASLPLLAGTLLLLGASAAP
Sequence of ATP-dependent molecular chaperone HSP82 (C4YTQ8 whole entry): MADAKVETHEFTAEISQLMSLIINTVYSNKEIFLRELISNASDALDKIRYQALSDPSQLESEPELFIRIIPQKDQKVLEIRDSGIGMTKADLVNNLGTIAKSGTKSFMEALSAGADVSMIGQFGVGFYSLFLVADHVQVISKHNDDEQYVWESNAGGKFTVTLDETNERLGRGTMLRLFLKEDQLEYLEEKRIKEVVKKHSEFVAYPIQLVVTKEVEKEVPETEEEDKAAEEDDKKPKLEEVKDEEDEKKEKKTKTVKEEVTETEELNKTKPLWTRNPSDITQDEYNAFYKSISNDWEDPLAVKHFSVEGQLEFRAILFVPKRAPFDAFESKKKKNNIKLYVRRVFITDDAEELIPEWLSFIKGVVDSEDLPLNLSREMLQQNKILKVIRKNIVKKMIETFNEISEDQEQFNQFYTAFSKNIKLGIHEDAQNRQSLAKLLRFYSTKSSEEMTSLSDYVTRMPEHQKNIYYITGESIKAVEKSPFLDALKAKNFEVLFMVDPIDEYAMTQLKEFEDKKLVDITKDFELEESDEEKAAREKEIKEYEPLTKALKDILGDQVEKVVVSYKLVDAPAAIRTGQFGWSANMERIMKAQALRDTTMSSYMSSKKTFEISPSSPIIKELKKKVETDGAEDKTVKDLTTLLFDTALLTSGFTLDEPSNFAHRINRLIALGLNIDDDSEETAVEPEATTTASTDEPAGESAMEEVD

The term EC50 denotes the concentration that produces a half-maximal response. The IC50 is the concentration that inhibits the measured activity by half. Consider `O=C(/C=C/c1cccs1)NC(=S)NNC(=O)c1ccccc1O`, for which the EC50 in assay [1] was 11 µM (active). The IC50 in assay [2] is 2.57 µM (active).

Turning to `O=C(N/N=C1\C/C(=N\NC(=O)c2ccncc2)c2ccccc21)c1ccncc1`, the IC50 in assay [3] was 1.35 µM (active).

Usually CC50 stands for the concentration that lowers cell viability or growth by half. The term AC50 denotes the concentration giving half of the maximal activity seen. As to `CC(=O)N(Cc1ccc(F)cc1)C1=C(NCCc2ccccc2)C(=O)c2ccccc2C1=O`, in [4], the CC50 was 0.67 µM (active). Further, in [5], the AC50 was 8.23 µM (active). Moreover, the IC50 in assay [6] was 3.23 µM (active).

Take `CCCCC(=O)NC(c1ccccc1)c1ccc2cccnc2c1O` (stereo not drawn): the results for the IC50 in [7], in assay [13] and in assay [18] were 5.62 µM (active), 10.6 µM (active) and 8.62 µM (active), respectively. Further, the concentration at half-maximal activity (AC50) in assay [8] was 2.44 µM (active); in assay [9] it was 63.3 µM (active); in assay [12], 2.45 µM (active); in assay [14], 4.16 µM (active); in [15] it was 3.88 µM (active); in [16], 9.11 µM (active). Moreover, the AC50 in assay [17] is 10.9 µM (active). Moreover, the EC50 in assay [10] was > 180 µM (inactive); in [11], 24.2 µM (active).
